Laboratory results reported in the supplement of paper PMC10307832.

Assays:
Experiment in all cases: relative viability (nuclei count vs DMSO), 5 days (fraction); higher = more cells survive
Erlotinib + Vorinostat = compound: C#Cc1cccc(Nc2ncnc3cc(OCCOC)c(OCCOC)cc23)c1 [Erlotinib] + O=C(CCCCCCC(=O)Nc1ccccc1)NO [Vorinostat] (partner 1 µM)
In short: (§1)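 Lung cancer cell lines in 1536-well plates got either a single drug or a fixed anchor-drug dose together with five library-drug doses (not always all listed) in √10 steps, by pin tool, on the day after seeding. Nuclei were counted after 5 days, and relative viability is the treated-to-vehicle ratio of nuclei counts. Values are medians of duplicate plates.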

Erlotinib + Phenformin = compound: C#Cc1cccc(Nc2ncnc3cc(OCCOC)c(OCCOC)cc23)c1 [Erlotinib] + N=C(N)NC(=N)NCCc1ccccc1 [Phenformin] (partner 250 µM)
In short: as §1

Erlotinib + Crizotinib = compound: C#Cc1cccc(Nc2ncnc3cc(OCCOC)c(OCCOC)cc23)c1 [Erlotinib] + C[C@@H](Oc1cc(-c2cnn(C3CCNCC3)c2)cnc1N)c1c(Cl)ccc(F)c1Cl [Crizotinib] (partner 1 µM)
In short: as §1

Erlotinib + AZD7762 = compound: C#Cc1cccc(Nc2ncnc3cc(OCCOC)c(OCCOC)cc23)c1 [Erlotinib] + NC(=O)Nc1cc(-c2cccc(F)c2)sc1C(=O)N[C@H]1CCCNC1 [AZD7762] (partner 0.2 µM)
In short: as §1

Erlotinib + Dasatinib = compound: C#Cc1cccc(Nc2ncnc3cc(OCCOC)c(OCCOC)cc23)c1 [Erlotinib] + Cc1nc(Nc2ncc(C(=O)Nc3c(C)cccc3Cl)s2)cc(N2CCN(CCO)CC2)n1 [Dasatinib] (partner 0.075 µM)
In short: as §1

| Cell Line | relative viability (Erlotinib + Vorinostat; first compound 0.02 µM) | relative viability (Erlotinib + Vorinostat; first compound 0.2 µM) | relative viability (Erlotinib + Vorinostat; first compound 0.6325 µM) | relative viability (Erlotinib + Vorinostat; first compound 2 µM) | relative viability (Erlotinib + Phenformin; first compound 0.02 µM) | relative viability (Erlotinib + Phenformin; first compound 0.2 µM) | relative viability (Erlotinib + Phenformin; first compound 0.6325 µM) | relative viability (Erlotinib + Phenformin; first compound 2 µM) | relative viability (Erlotinib + Crizotinib; first compound 0.02 µM) | relative viability (Erlotinib + Crizotinib; first compound 0.2 µM) | relative viability (Erlotinib + Crizotinib; first compound 0.6325 µM) | relative viability (Erlotinib + Crizotinib; first compound 2 µM) | relative viability (Erlotinib + AZD7762; first compound 0.02 µM) | relative viability (Erlotinib + AZD7762; first compound 0.2 µM) | relative viability (Erlotinib + AZD7762; first compound 0.6325 µM) | relative viability (Erlotinib + AZD7762; first compound 2 µM) | relative viability (Erlotinib + Dasatinib; first compound 0.02 µM) | relative viability (Erlotinib + Dasatinib; first compound 0.2 µM) | relative viability (Erlotinib + Dasatinib; first compound 0.6325 µM) | relative viability (Erlotinib + Dasatinib; first compound 2 µM) |
| --- | --- | --- | --- | --- | --- | --- | --- | --- | --- | --- | --- | --- | --- | --- | --- | --- | --- | --- | --- | --- |
| HCC-827 | 0.228 | 0.186 | 0.121 | 0.132 | 0.232 | 0.144 | 0.139 | 0.133 | 0.371 | 0.195 | 0.174 | 0.177 | 0.137 | 0.153 | 0.116 | 0.123 | 0.148 | 0.152 | 0.195 | 0.126 |
| HOP-62 | 0.714 | 0.492 | 0.759 | 0.716 | 0.726 | – | 0.711 | 0.689 | 0.885 | 0.989 | 0.965 | 0.972 | 0.702 | 0.638 | 0.541 | – | 0.695 | 0.583 | – | 0.567 |
| LC-2-ad | 0.731 | 0.794 | 0.75 | 0.589 | 0.566 | 0.643 | 0.592 | 0.534 | 0.468 | 0.509 | 0.458 | 0.329 | 0.843 | 0.508 | 0.514 | 0.389 | 0.724 | 0.466 | 0.589 | 0.452 |
| LCLC-97TM1 | – | 0.503 | 1.01 | 0.596 | 0.405 | 0.412 | 0.439 | 0.379 | 0.44 | – | 0.376 | 0.487 | 0.291 | 0.309 | 0.356 | 0.196 | 0.749 | 0.794 | 0.967 | 0.782 |
| LCLC-103H | 0.837 | 0.732 | 0.796 | 0.685 | 0.335 | 0.347 | 0.356 | 0.289 | 1.04 | 1.09 | 1.16 | 1.04 | 0.801 | 0.875 | 0.874 | 0.669 | – | 0.6 | 0.478 | 0.399 |
| LK-2 | 0.264 | 0.454 | 0.419 | 0.304 | 0.623 | 0.275 | 0.513 | 0.39 | 0.217 | 0.228 | 0.198 | 0.227 | 0.376 | 0.366 | 0.438 | 0.268 | 0.318 | 0.225 | 0.306 | 0.268 |
| LOU-NH91 | 0.803 | 0.713 | 0.785 | 0.703 | 0.449 | 0.481 | 0.44 | 0.473 | 0.601 | 0.54 | 0.55 | 0.499 | 0.682 | 0.692 | 0.769 | 0.684 | 0.459 | 0.434 | 0.415 | 0.365 |
| LU99A | 0.505 | 0.507 | 0.49 | 0.468 | 0.942 | 0.794 | 0.886 | 0.841 | 0.612 | 0.607 | 0.64 | 0.432 | 0.414 | 0.414 | 0.295 | 0.418 | 0.556 | 0.474 | 0.584 | 0.475 |
| LXF-289 | 0.824 | 0.762 | 0.66 | 0.758 | 0.54 | – | 0.496 | 0.476 | 0.818 | 0.828 | 0.761 | 0.711 | 1.13 | 1.07 | 1.05 | 1.03 | 0.295 | 0.274 | 0.239 | 0.183 |
| NCI-H23 | 0.704 | 0.502 | 0.666 | 0.485 | – | 0.662 | 0.684 | 0.72 | 0.565 | 0.481 | 0.601 | 0.433 | 0.291 | 0.177 | 0.198 | 0.219 | 0.876 | – | 0.928 | 0.698 |
| NCI-H322M | 0.832 | 0.716 | 0.688 | 0.546 | 0.816 | 0.592 | 0.539 | 0.421 | 0.786 | 0.707 | 0.668 | 0.322 | 0.464 | 0.481 | 0.371 | 0.395 | 0.231 | 0.246 | 0.257 | 0.238 |
| NCI-H358 | 0.693 | 0.292 | 0.419 | 0.221 | 0.349 | 0.277 | 0.234 | 0.178 | 0.549 | 0.524 | 0.379 | 0.24 | 0.537 | 0.361 | 0.429 | 0.201 | 0.174 | 0.129 | 0.133 | 0.171 |
| NCI-H460 | 0.832 | 0.734 | 0.969 | 0.601 | 0.524 | 0.512 | 0.541 | 0.466 | 1.08 | 0.763 | 1.26 | 0.74 | 0.613 | 0.734 | 0.631 | 0.629 | 0.486 | 0.51 | 0.5 | 0.432 |
| NCI-H596 | 0.683 | 0.636 | 0.606 | 0.583 | 0.745 | 0.698 | 0.735 | 0.688 | 0.952 | 0.961 | 1.02 | 0.828 | 1.04 | 0.954 | 1.05 | 0.87 | 0.634 | 0.565 | 0.538 | 0.472 |
| NCI-H647 | 0.735 | 0.485 | 0.556 | 0.565 | 0.586 | 0.476 | 0.632 | 0.353 | 1.2 | 1.09 | 1.26 | 0.811 | 0.465 | 0.439 | 0.508 | 0.431 | 0.274 | 0.117 | 0.221 | 0.144 |
| NCI-H650 | 0.487 | 0.496 | 0.59 | 0.449 | 0.424 | 0.462 | 0.449 | 0.479 | 0.735 | 0.803 | 0.903 | 0.662 | 0.953 | 1.19 | 1.23 | 1.28 | 0.38 | 0.456 | 0.526 | 0.425 |
